According to ChEMBL document CHEMBL1121769, “5'Chloropuromycin. Inhibition of protein synthesis and antitrypanosomal activity” (J Med Chem, 1981):

Tested on: Mus musculus; call rule not given here
Assay: Tested for inhibitory activity against CT strain of Trypanosoma rhodesiense infected mice after administration at 106 mg/kg; Not active
Assay type: functional, organism-based
Parameters: dose 106 mg/kg

COc1ccc(CC(N)C(=O)NC2C(C)OC(n3cnc4c(N(C)C)ncnc43)C2O)cc1 (stereo unspecified)
IC50: Not Active
